# According to BindingDB's records for doi:10.1016/S0960-894X(01)80179-7 (1994):
# Target: Kappa-type opioid receptor (Cavia porcellus, UniProt P41144)
# Assay: ChEBML_92409
# Text: Affinity at K opioid receptor on membranes prepared from guinea pig cerebellum by [3H]- 69593 displacement.
# Chain of Kappa-type opioid receptor (P41144 whole entry): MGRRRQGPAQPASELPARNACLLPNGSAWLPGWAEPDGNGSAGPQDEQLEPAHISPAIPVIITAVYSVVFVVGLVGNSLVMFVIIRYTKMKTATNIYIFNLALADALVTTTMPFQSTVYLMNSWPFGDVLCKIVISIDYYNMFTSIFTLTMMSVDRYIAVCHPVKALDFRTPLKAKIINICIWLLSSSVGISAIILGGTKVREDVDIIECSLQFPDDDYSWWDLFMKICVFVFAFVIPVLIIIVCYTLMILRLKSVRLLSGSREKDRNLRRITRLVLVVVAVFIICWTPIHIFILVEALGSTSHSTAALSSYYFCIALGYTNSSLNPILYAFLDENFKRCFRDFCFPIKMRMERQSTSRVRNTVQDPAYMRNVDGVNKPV
row,Compound,Ki [nM]
1,Cc1ccc(C(C(=O)N(C)[C@H](CN2CC[C@H](O)C2)c2ccccc2)c2ccc(C)cc2)cc1,20
2,CN(C(=O)C1c2ccccc2CCc2ccccc21)[C@H](CN1CC[C@H](O)C1)c1ccccc1,20
3,CN(C(=O)C(c1ccccc1)c1ccccc1)[C@H](CN1CC[C@H](O)C1)c1cccc([N+](=O)[O-])c1,20
